Data on four compounds can be found in patent US7112698B2, “4-(c2-6alkoxy)-substituted chalcones as therapeutic agents” (Spear Therapeutics Limited, priority 2001, dated 2006).

For series [1], the system named is K562 human leukemia cell line. Conditions: background, antitumour activity; cited from earlier work.
In a further series the test system is MCF-7 cells. Description: MCF-7 cell line (non-induced) cytotoxicity assay, MTT. It counts as cell-based. Conditions: Homo sapiens, MCF7; non-induced MCF-7 cells, 96 hours, MTT; read-out: MCF-7 Cells IC50. The text has this: (§1) CYP1A1 and CYP1B1 enzyme activity is induced by TCDD (tetrachlorodibenzodioxin (Dioxin)) in breast tumour MCF-7 cells (see, e.g., Sutter et al., 1994). CYP1B1 is expressed in a variety of human tumours, and can be inducible by TCDD in numerous cell types including breast, liver, lung, and kidney (see, e.g., Murray et al., 1997). CYP1B1 is known to catalyse estradiol 4-hydroxylation metabolism. In untreated culture, the constitutive rate of estradiol E2 metabolism in MCF-7 cells is minimal. However, treatment with TCDD causes a marked increase in the rate of E2 metabolism (see, e.g., Spink et al., 1994). […] Therefore the cytotoxicity of compounds in non-induced MCF-7 cells correlates to the cytotoxicity of compounds against normal cells, whilst the cytotoxicity of compounds against TCDD-induced MCF-7 cells correlates to the cytotoxicity of compounds against real tumours that express CYP1B1.
(§2) The cytotoxicity of compounds in non-induced MCF-7 cells correlates to the cytotoxicity of compounds against normal cells, whilst the cytotoxicity of compounds against TCDD-induced MCF-7 cells correlates to the cytotoxicity of compounds against real tumours that express CYP1B1.
(§3) Cells were maintained in RPMI 1640 with Glutamax 1 (Life Technologies) with 10% (v/v) heat inactivated foetal calf serum (Hybrimax. Sigma), at 37° C., 5% CO2/95% air with 100% humidity and passaged using trypsin/EDTA. 1×10^3 cells were plated out in 100 μl medium per well of 96-well flat-bottomed plates (Fisher). After 4 hours to allow adherance, 100 μl of medium containing TCDD (British Greyhound Chromatography; 10 μM stock in DMSO (dimethylsulfoxide)) or medium with 0.2% (v/v) DMSO as control was added to each well to give a final concentration of 10 nM TCDD, 0.1% (v/v) DMSO, for 24 hours to allow maximal CYP expression. The medium was then carefully aspirated and 100 μl fresh medium added. Within 30 minutes test compound was added in quadruplicate in 100 μl medium (with or without inhibitors) at double the final concentration from 100 mM stock in DMSO to give a final concentration of not more than 0.1% (v/v) DMSO, or DMSO solvent alone at 0.1% (v/v) as control. The cells were then allowed to grow on for 96 hours to give 80–90% confluence in the control wells. 50 μl MTT (Thiazol blue, Sigma) at 2 mg/ml in Dulbecco's phosphate buffered saline-A, was then added to each well for 3 hours. All medium was aspirated, then the formazan product generated by viable cells was solubilized with 150 μl DMSO. Plates were vortexed and the absorbance at 540 nm determined using a plate reader. Results were expressed as the percentage of 100% (control) proliferation and the IC50 calculated using the line of best fit for a sigmoidal dose response curve with variable slope using Graphpad Prizm software. All determinations were carried out in at least triplicate.

Another series has as its system TCDD-induced MCF-7 cells. The series can be described thus: TCDD-induced MCF-7 cell line cytotoxicity assay, MTT. Format: cell-based, human. Conditions: for IC50: 96 hours, MTT.
Text: as §1, §2
as §3, with “triplicate. […]” for “triplicate.”

Series [2] deals with MDA-468 advanced breast cancer cell line. The series can be described thus: MDA-468 tumour cell line cytotoxicity assay. Format: cell-based, human. Conditions: for IC50: Homo sapiens, without TCDD; for Tumour Selectivity Differential Factor: IC50 MCF-10A divided by IC50 MDA-468 (Table 2). As to the method: (§4) Cells were maintained in RPMI 1640 with Glutamax 1 (Life Technologies) with 10% (v/v) heat inactivated foetal calf serum (Hybrimax. Sigma), at 37° C., 5% CO2/95% air with 100% humidity and passaged using trypsin/EDTA. 1×10^3 cells were plated out in 100 μl medium per well of 96-well flat-bottomed plates (Fisher). […] The medium was then carefully aspirated and 100 μl fresh medium added. […] 50 μl MTT (Thiazol blue, Sigma) at 2 mg/ml in Dulbecco's phosphate buffered saline-A, was then added to each well for 3 hours. All medium was aspirated, then the formazan product generated by viable cells was solubilized with 150 μl DMSO. Plates were vortexed and the absorbance at 540 nm determined using a plate reader. […] All determinations were carried out in at least triplicate.
(§5) This cell culture based assay is performed using the two cell lines MDA-468 and MCF-10A. The MDA468 cell line is an advanced breast cancer cell line, whilst the MCF-10A cell line is a normal breast cell line.
(§6) This assay was performed using the two cell lines MDA-468 and MCF-10A according to the procedure described above for the MCF-7 assay, but without the addition of TCDD.
(§7) The tumour selectivity differential factor (TSDF) is calculated by dividing the IC50 obtained from the MCF-10A data by the IC50 obtained from the MDA-468 data.

Series [3] relates to MCF-10A normal breast cell line. The series can be described thus: MCF-10A normal cell line cytotoxicity assay. It counts as cell-based. Conditions: Homo sapiens, without TCDD. The procedure: as §4, §5, §6, §7

One may read the IC50 as the point on the concentration scale where inhibition reaches its midpoint. In the case of `CC(=O)/C=C/c1ccc(O)cc1` [(E)-1-(4′-hydroxyphenyl)but-1-en-3-one], in series [1], the IC50 was 60000 nM.
Regarding `CCCOc1ccc(/C=C/C(=O)c2cc(OC)cc(OC)c2)cc1` [DMU-175, (E)-1-(4-propoxyphenyl)-3-(3,5-dimethoxyphenyl)prop-1-en-3-one], the IC50 in the series with MCF-7 cells is 15000 nM; in the series with TCDD-induced MCF-7 cells (Homo sapiens, MCF7, MCF-7 cells induced with 10 nM TCDD for 24 hours), 540 nM; in the series with TCDD-induced MCF-7 cells (MCF-7 cells induced with 10 nM TCDD for 24 hours), 500 nM; in series [2] it was 1400 nM; in series [3] it was 16000 nM. In the series on TCDD-induced MCF-7 cells (FIG. 1, un-induced versus TCDD-induced MCF-7 cells), the “increase in the cytotoxic activity by the induction of CYP1B1” value is 28 fold. Besides, the “Tumour Selectivity Differential Factor” value in the series on TCDD-induced MCF-7 cells (MCF-7 IC50 versus TCDD-induced MCF-7 IC50 (Table 1)) was found to be 30; in series [2] it was 11. For the same compound, the “more toxic to “tumour” cells than to “normal” cells” value in the series with TCDD-induced MCF-7 cells (TCDD-induced MCF-7 versus MCF-7) is 30 fold. Also, in series [2] (MDA-468 versus MCF-10A), the “more toxic to cancer cells than to normal cells (tumour selectivity)” value turned out to be 11 fold.
For `COc1cccc2c1C(=O)c1c(O)c3c(c(O)c1C2=O)C[C@@](O)(C(=O)CO)C[C@@H]3O[C@H]1C[C@H](N)[C@H](O)[C@H](C)O1` [Doxorubicin, doxorubicin], in series [2], the IC50 came out at 3 nM and the “Tumour Selectivity Differential Factor” value is 0.1. Moreover, the “more toxic to normal cells than to cancer cells” value in series [2] (MCF-10A versus MDA-468) is 10 fold. The same compound yielded an IC50 in series [3] of 0.3 nM.
As for `CN(Cc1cnc2nc(N)nc(N)c2n1)c1ccc(C(=O)N[C@@H](CCC(=O)O)C(=O)O)cc1` [Methotrexate, methotrexate], the concentration for half-maximal inhibition (IC50) in series [2] is 40 nM; in series [3] it was 60 nM. In addition, the “Tumour Selectivity Differential Factor” value in series [2] came out at 1.5.
